Laboratory results published in patent US9676789B2, “Aminated derivative of homoharringtonine, preparation method therefor, and application thereof” (HANGZHOU BENSHENG PHARMACEUTICAL CO., LTD., priority 2011, dated 2017).
In brackets after ≈: the same amount, converted by molar mass.

How the values were obtained:
[1] = tested on: H9 (acute lymphoblastic leukemia, ALL); experiment: MTT leukemia cell growth inhibition, 72 h; assay type: cell-based, human; conditions: Homo sapiens, H9, 72 h; for IC50: read-out: IC50; for IC90: read-out: IC90
From the text: (§1) Leukemia cell lines: K562/adr (drug-resistant, chronic myeloid leukemia, CML), NB4 (acute promyelocytic leukemia, AML), Kasumi-1 (acute myeloid leukemia M2 type, AML-M2), Jurkat (acute lymphoblastic leukemia, ALL), all of which are donated by Cancer Research Institute of Zhejiang University, China; and H9 (acute lymphoblastic leukemia, ALL), which is purchased from China Center for Type Culture Collection.
(§2) Obtaining 6000 well-growing leukemia cells and inoculating them into wells of a 96-well cell culture plate. The culture medium is the 1640 cell culture medium containing 10% fetal bovine serum. After adding the homoharringtonine derivatives of different concentrations and mixing uniformly, placing the plate in a carbon dioxide cell incubator (5% CO2) at 37° C. and incubating for 72 hours. Then the viable cell concentration is determined by the MTT method. In this experiment, the cell viability in control group (not treated with any compound) is set as 100%.

[2] = tested on: Jurkat (acute lymphoblastic leukemia, ALL); experiment: MTT leukemia cell growth inhibition, 72 h; assay type: cell-based, human; conditions: Homo sapiens; for IC50: read-out: IC50; for IC90: read-out: IC90
From the text: as §1, §2

[3] = tested on: K562/adr (drug-resistant, chronic myeloid leukemia, CML); experiment: MTT leukemia cell growth inhibition, 72 h; assay type: cell-based, human; conditions: Homo sapiens, K562/Adr; for IC50: read-out: IC50; for IC90: read-out: IC90
From the text: as §1, §2

[4] = tested on: Kasumi-1 (acute myeloid leukemia M2 type, AML-M2); experiment: MTT leukemia cell growth inhibition, 72 h; assay type: cell-based, human; conditions: Homo sapiens, Kasumi-1, 72 h; for IC50: read-out: IC50; for IC90: read-out: IC90
From the text: as §1, §2

[5] = tested on: NB4 (acute promyelocytic leukemia, AML); experiment: MTT leukemia cell growth inhibition, 72 h; assay type: cell-based, human; conditions: Homo sapiens, NB4, 72 h; for IC50: read-out: IC50; for IC90: read-out: IC90
From the text: as §1, §2

[6] = tested on: RPMI8226 (multiple myeloma); experiment: MTT multiple myeloma cell growth inhibition, 72 h; assay type: cell-based, human; conditions: Homo sapiens, RPMI-8226, RPMI8226, 72 h; for IC50: read-out: IC50; for IC90: read-out: IC90
Experimental: Multiple myeloma and lymphoma cell lines: RPMI8226 (multiple myeloma), purchased from Fuxiang Bio-tech Co. Ltd., Shanghai, China.
as §2, with “method.” for “method. In this experiment, the cell viability in control group (not treated with any compound) is set as 100%.”

A549 (human lung cancer) = experiment: MTT solid tumor cell growth inhibition, 72 h; assay type: cell-based; conditions: Homo sapiens, A549, 72 h; for IC50: read-out: IC50; for IC90: read-out: IC90
Experimental: (§3) Human solid tumor cell lines: Hep-2 ([…]), A549 (human lung cancer), CaES-17 (esophageal cancer cell), PC-3 (prostate cancer), CNE (nasopharyngeal carcinoma cell), and SK-OV-3 (ovarian cancer cell), all of which are purchased from China Center For Type Culture Collection; RKO (human colon adenocarcinoma cell), MGC 803 (human gastric cancer cell), MG63 (osteosarcoma) and U87 MG (malignant glioma cell), all of which are purchased from Fuxiang Bio-tech Co. Ltd., Shanghai, China; PANC-1 (pancreatic cancer), Huh7 (human liver cancer cell), Becap37 (human breast cancer cell), and Hela (human cervical cancer cell), all of which are donated by Cancer Research Institute of Zhejiang University, China.
(§4) Obtaining 4000 well-growing human solid tumor cells and inoculating them into wells of a 96-well cell culture plate. The culture medium is DMEM High Glucose cell culture medium containing 10% fetal bovine serum. The plate is placed in a carbon dioxide cell incubator (5% CO2) at 37° C. and incubating for 24 hours. After adding the homoharringtonine derivatives of different concentration and mixing uniformly, the plate is placed in a carbon dioxide cell incubator (5% CO2) at 37° C. and incubating for 72 hours. Then the viable cell concentration is determined by the MTT method and the cell viability (%) after drug treatment is calculated. In this experiment, the cell viability of control group (not treated with any compound) is set as 100%.

[7] = tested on: Becap37 (human breast cancer cell); experiment: MTT solid tumor cell growth inhibition, 72 h; assay type: cell-based; conditions: Homo sapiens, Becap37, 72 h; for IC50: read-out: IC50; for IC90: read-out: IC90
Experimental: as §3, §4

[8] = tested on: Huh7 (human liver cancer cell); experiment: MTT solid tumor cell growth inhibition, 72 h; assay type: cell-based; conditions: Homo sapiens, Huh-7, Huh7, 72 h; for IC50: read-out: IC50; for IC90: read-out: IC90
Experimental: as §3, §4

[9] = tested on: RKO (human colon adenocarcinoma cell); experiment: MTT solid tumor cell growth inhibition, 72 h; assay type: cell-based; conditions: Homo sapiens
Experimental: as §3, §4

MG63 (osteosarcoma) = experiment: MTT solid tumor cell growth inhibition, 72 h; assay type: cell-based, human; conditions: Homo sapiens, MG 63, 72 h; for IC50: read-out: IC50; for IC90: read-out: IC90
Experimental: as §3, §4

[10] = tested on: PANC-1 (pancreatic cancer); experiment: MTT solid tumor cell growth inhibition, 72 h; assay type: cell-based, human; conditions: Homo sapiens, PANC-1, 72 h; for IC50: read-out: IC50; for IC90: read-out: IC90
Experimental: as §3, §4

[11] = tested on: MGC 803 (human gastric cancer cell); experiment: MTT solid tumor cell growth inhibition, 72 h; assay type: cell-based; conditions: Homo sapiens, MGC 803, 72 h; for IC50: read-out: IC50; for IC90: read-out: IC90
Experimental: as §3, §4

Structure (SMILES)	IC50 [1]	IC90 [1]	IC50 [2]	IC90 [2]	IC50 [3]	IC90 [3]	IC50 [4]	IC90 [4]	IC50 [5]	IC90 [5]	IC50 [6]	IC90 [6]	IC50 (A549 (human lung cancer))	IC90 (A549 (human lung cancer))	IC50 [7]	IC90 [7]	IC50 [8]	IC90 [8]	IC50 (MG63 (osteosarcoma))	IC90 (MG63 (osteosarcoma))	further results
COC1=C[C@]23CCCN2CCc2cc4c(cc2[C@@H]3[C@@H]1OC(=O)[C@@](O)(CCCC(C)(C)O)CC(=O)Nc1nccs1)OCO4 [BS-HH-008]	13.4 µg/mL (≈ 21.9 µM)	> 16 µg/mL	4.69 µg/mL (≈ 7.64 µM)	16 µg/mL (≈ 26.1 µM)	> 16 µg/mL	> 16 µg/mL	5 µg/mL (≈ 8.15 µM)	> 16 µg/mL	5.62 µg/mL (≈ 9.16 µM)	12.8 µg/mL (≈ 20.9 µM)	11 µg/mL (≈ 17.9 µM)	> 16 µg/mL	16 µg/mL (≈ 26.1 µM)	> 16 µg/mL	> 16 µg/mL	> 16 µg/mL	11.2 µg/mL (≈ 18.3 µM)	> 16 µg/mL	15.5 µg/mL (≈ 25.3 µM)	> 16 µg/mL	IC50 ([9]; read-out: IC50): 4.44 µg/mL (≈ 7.23 µM); IC90 ([9]; read-out: IC90): 16 µg/mL (≈ 26.1 µM); IC50 [10]: > 16 µg/mL; IC90 [10]: > 16 µg/mL
COCCCNC(=O)C[C@](O)(CCCC(C)(C)O)C(=O)O[C@@H]1C(OC)=C[C@]23CCCN2CCc2cc4c(cc2[C@H]13)OCO4 [BS-HH-028]	6.52 µg/mL (≈ 10.8 µM)	> 16 µg/mL	3.56 µg/mL (≈ 5.91 µM)	15 µg/mL (≈ 25 µM)	> 16 µg/mL	> 16 µg/mL	2.75 µg/mL (≈ 4.56 µM)	13 µg/mL (≈ 21.6 µM)	2.59 µg/mL (≈ 4.3 µM)	7.52 µg/mL (≈ 12.5 µM)	4.92 µg/mL (≈ 8.16 µM)	> 16 µg/mL	16 µg/mL (≈ 26.5 µM)	> 16 µg/mL	13.1 µg/mL (≈ 21.8 µM)	> 16 µg/mL	5.93 µg/mL (≈ 9.84 µM)	> 16 µg/mL	6.8 µg/mL (≈ 11.3 µM)	> 16 µg/mL	IC50 [11]: 8.62 µg/mL (≈ 14.3 µM); IC90 [11]: 24.3 µg/mL (≈ 40.4 µM); IC50 [10]: 16 µg/mL (≈ 26.5 µM); IC90 [10]: > 16 µg/mL
COC1=C[C@]23CCCN2CCc2cc4c(cc2[C@@H]3[C@@H]1OC(=O)[C@@](O)(CCCC(C)(C)O)CC(=O)N1CCC(C#N)CC1)OCO4 [BS-HH-035]	5.49 µg/mL (≈ 8.8 µM)	> 16 µg/mL	0.87 µg/mL (≈ 1.39 µM)	> 16 µg/mL	14.1 µg/mL (≈ 22.6 µM)	> 16 µg/mL	0.8 µg/mL (≈ 1.28 µM)	2.96 µg/mL (≈ 4.75 µM)	0.72 µg/mL (≈ 1.15 µM)	6.3 µg/mL (≈ 10.1 µM)	1.44 µg/mL (≈ 2.31 µM)	14.1 µg/mL (≈ 22.7 µM)	5.41 µg/mL (≈ 8.67 µM)	> 16 µg/mL	3.75 µg/mL (≈ 6.01 µM)	> 16 µg/mL	4.46 µg/mL (≈ 7.15 µM)	> 16 µg/mL	1.98 µg/mL (≈ 3.17 µM)	> 16 µg/mL	IC50 [11]: 1.79 µg/mL (≈ 2.87 µM); IC90 [11]: 9.2 µg/mL (≈ 14.7 µM); IC50 [10]: 5.02 µg/mL (≈ 8.05 µM); IC90 [10]: > 16 µg/mL
COC1=C[C@]23CCCN2CCc2cc4c(cc2[C@@H]3[C@@H]1OC(=O)[C@@](O)(CCCC(C)(C)O)CC(=O)N1CCCCC1C)OCO4 (stereo partly drawn) [BS-HH-037]	3.69 µg/mL (≈ 6.02 µM)	> 16 µg/mL	0.41 µg/mL (≈ 0.669 µM)	> 16 µg/mL	> 16 µg/mL	> 16 µg/mL	1.58 µg/mL (≈ 2.58 µM)	16 µg/mL (≈ 26.1 µM)	0.7 µg/mL (≈ 1.14 µM)	5.08 µg/mL (≈ 8.29 µM)	1 µg/mL (≈ 1.63 µM)	9.86 µg/mL (≈ 16.1 µM)	1.96 µg/mL (≈ 3.2 µM)	> 16 µg/mL	1.5 µg/mL (≈ 2.45 µM)	> 16 µg/mL	16 µg/mL (≈ 26.1 µM)	> 16 µg/mL	1.44 µg/mL (≈ 2.35 µM)	16 µg/mL (≈ 26.1 µM)	IC50 [11]: 0.9 µg/mL (≈ 1.47 µM); IC90 [11]: 9.29 µg/mL (≈ 15.2 µM); IC50 [10]: 6.47 µg/mL (≈ 10.6 µM); IC90 [10]: > 16 µg/mL
